As usually defined, the IC50 is the concentration that gives 50% inhibition.

Molecules are shown by their SMILES. Where a name gives a salt, the structure may show the parent alone. Bounds are passed on as bounds.

For this experiment, the system named is Phosphorylated eIF4E. Put plainly: peIF4E Signaling Cellular Assay (CisBio peIF4E HTRF). The experiment is classed as cell-based. Conditions: cells incubated with compound for 2 hrs at 37° C., 12-point curve. As to the method: Phosphorylated eIF4E is assayed using the CisBio peIF4E HTRF® assay kit (CisBio, catalogue No. 64EF4PEG). Cells are plated in 96-well tissue-culture treated plate in appropriate growth medium (90 μL). Compounds (10×) are diluted using 3-fold serial dilutions in cell culture medium and added to cells. Plates are incubated for 2 hrs at 37° C. The cell supernatant is carefully removed either by aspirating supernatant or by flicking the plate. Immediately 50 μL of supplemented lysis buffer (1×) is added and incubated for at least 30 minutes at room temperature under shaking. After homogenization by pipeting up and down, 16 μL of cell lysate is transferred from the 96-well cell-culture plate to a 384-well small volume white plate. 4 μL of premixed antibody solutions (vol/vol) is prepared in the detection buffer and added. The plate is covered with a plate sealer and incubated overnight at room temperature. The fluorescence emissions at two different wavelengths are read (665 nm and 620 nm) on a Wallac Victor2. Emission ratios are converted into percent inhibitions and imported into GraphPad Prism software. […] IC50 values are determined using a nonlinear regression model available in GraphPad Prism 5.
In general terms: Time-resolved FRET reads energy transfer from a long-lived donor to a nearby acceptor.
In the case of `Cc1c(N)ncnc1Nc1cc(C#N)c2c(c1)C1(CCCCC1)NC2=O` [Cpd. No. 91, 6′-((6-amino-5-methylpyrimidin-4-yl)amino)-3′-oxospiro[cyclohexane-1,1′-isoindoline]-4′-carbonitrile], the IC50 is 1000 to 100000 nM. Under `COc1cncnc1Nc1cc(C)c2c(c1)C1(CCN(CC(F)F)CC1)NC2=O` [Cpd. No. 65, 1′-(2,2-difluoroethyl)-6-((5-methoxypyrimidin-4-yl)amino)-4-methylspiro[isoindoline-1,4′-piperidin]-3-one] stands 50 to 1000 nM; under `Cc1cc(Nc2ncnc(N)c2C)cc2c1C(=O)CC21CCCCC1` [Cpd. No. 110, 6′-((6-amino-5-methylpyrimidin-4-yl)amino)-4′-methylspiro[cyclohexane-1,1′-inden]-3′(2′H)-one], 50 to 1000 nM; under `Cc1cc(Nc2ncnc(N)c2OC(F)F)cc2c1C(=O)NC21CCCCC1` [Cpd. No. 84, 6′-((6-amino-5-(difluoromethoxy)pyrimidin-4-yl)amino)-4′-methylspiro[cyclohexane-1,1′-isoindolin]-3′-one], 50 to 1000 nM.

`COc1c(Nc2ncnc(N)c2C)cc(C)c2c1C1(CCCCC1)NC2=O` [Cpd. No. 94, 6′-((6-amino-5-methylpyrimidin-4-yl)amino)-7′-methoxy-4′-methylspiro[cyclohexane-1,1′-isoindolin]-3′-one]: the IC50 is 50 to 1000 nM. Then `Cc1cc(Nc2ncnc(N)c2Cl)nc2c1C(=O)NC21CCCCC1` [Cpd. No. 73, 2′-((6-amino-5-chloropyrimidin-4-yl)amino)-4′-methylspiro[cyclohexane-1,7′-pyrrolo[3,4-b]pyridin]-5′(6′H)-one], with < 50 nM; and `Cc1cc(Nc2ncncc2C(N)=O)cc2c1C(=O)NC21CCCCC1` [Cpd. No. 64, 4-((4′-methyl-3′-oxospiro[cyclohexane-1,1′-isoindolin]-6′-yl)amino)pyrimidine-5-carboxamide], with 50 to 1000 nM. Under `Cc1cc(Nc2ncncc2C#N)cc2c1C(=O)NC21CCN(C)CC1` [Cpd. No. 61, 4-((1′,4-dimethyl-3-oxospiro[isoindoline-1,4′-piperidin]-6-yl)amino)pyrimidine-5-carbonitrile trifluoroacetic acid salt] stands 1000 to 100000 nM; under `Cc1c(N)ncnc1Nc1cc(O)c2c(c1)C1(CCCCC1)NC2=O` [Cpd. No. 92, 6′-((6-amino-5-methylpyrimidin-4-yl)amino)-4′-hydroxyspiro[cyclohexane-1,1′-isoindolin]-3′-one], 1000 to 100000 nM; under `Cc1cc(Nc2ncnc3[nH]ccc23)cc2c1C(=O)NC21CCCCC1` [Cpd. No. 75, 6′-((7H-pyrrolo[2,3-d]pyrimidin-4-yl)amino)-4′-methylspiro[cyclohexane-1,1′-isoindolin]-3′-one], < 50 nM.

As for `Cc1cc(Nc2ncnc(N)c2C)cc2c1C(=O)NC21CCN(CC(F)F)CC1` [Cpd. No. 66, 6-((6-amino-5-methylpyrimidin-4-yl)amino)-1′-(2,2-difluoroethyl)-4-methylspiro[isoindoline-1,4′-piperidin]-3-one], the IC50 was in the range of 50 to 1000 nM. Under `Cc1c(N)ncnc1Nc1cc(C(F)(F)F)c2c(c1)C1(CCCCC1)NC2=O` [Cpd. No. 79, 6′-((6-amino-5-methylpyrimidin-4-yl)amino)-4′-(trifluoromethyl)spiro[cyclohexane-1,1′-isoindolin]-3′-one] stands 50 to 1000 nM. `Cc1cc(Nc2ncnc(N)c2OCCN)cc2c1C(=O)NC21CCCCC1` [Cpd. No. 81, 6′-((6-amino-5-(2-aminoethoxy)pyrimidin-4-yl)amino)-4′-methylspiro[cyclohexane-1,1′-isoindolin]-3′-one hydrochloride]: the IC50 was 50 to 1000 nM. Under `Cc1cc(Nc2ncnc(N)c2C)cc2c1C(=O)NC21CCOCC1` [Cpd. No. 74, 6-((6-amino-5-methylpyrimidin-4-yl)amino)-4-methyl-2′,3′,5′,6′-tetrahydrospiro[isoindoline-1,4′-pyran]-3-one] stands 50 to 1000 nM; under `Cc1cc(Nc2ncnc(N)c2C#N)cc2c1C(=O)NC21CCCCC1` [Cpd. No. 77, 4-amino-6-((4′-methyl-3′-oxospiro[cyclohexane-1,1′-isoindolin]-6′-yl)amino)pyrimidine-5-carbonitrile], < 50 nM.

For the molecule `Cc1cc(Nc2cc(N)ncn2)nc2c1C(=O)NC21CCCCC1` [Cpd. No. 70, 2′-((6-aminopyrimidin-4-yl)amino)-4′-methylspiro[cyclohexane-1,7′-pyrrolo[3,4-b]pyridin]-5′(6′H)-one], the IC50 was < 50 nM. Under `COc1c(N)ncnc1Nc1cc(C)c2c(c1)C1(CCN(C)CC1)NC2=O` [Cpd. No. 68, 6-((6-amino-5-methoxypyrimidin-4-yl)amino)-1′,4-dimethylspiro[isoindoline-1,4′-piperidin]-3-one] stands 50 to 1000 nM; under `Cc1c(N)ncnc1Nc1cc(C(F)F)c2c(c1)C1(CCCCC1)NC2=O` [Cpd. No. 88, 6′-((6-amino-5-methylpyrimidin-4-yl)amino)-4′-(difluoromethyl)spiro[cyclohexane-1,1′-isoindolin]-3′-one], 50 to 1000 nM.

Regarding `CCc1cc(Nc2ncnc(N)c2C)cc2c1C(=O)NC21CCCCC1` [Cpd. No. 90, 6′-((6-amino-5-methylpyrimidin-4-yl)amino)-4′-ethylspiro [cyclohexane-1,1′-isoindolin]-3′-one], the IC50 was in the range of 50 to 1000 nM. Under `COc1cncnc1Nc1cc(C)c2c(c1)C1(CCN(C)CC1)NC2=O` [Cpd. No. 60, 6-((5-methoxypyrimidin-4-yl)amino)-1′,4-dimethylspiro [isoindoline-1,4′-piperidin]-3-one] stands 50 to 1000 nM; under `Cc1cc(Nc2ncnc(N)c2C)cc2c1C(=O)NC2` [Cpd. No. 106, 5-((6-amino-5-methylpyrimidin-4-yl)amino)-7-methylisoindolin-1-one], 1000 to 100000 nM. Then `COc1c(N)ncnc1Nc1cc(C)c2c(c1)C1(CCN(CC(F)F)CC1)NC2=O` [Cpd. No. 69, 6-((6-amino-5-methoxypyrimidin-4-yl)amino)-1′-(2,2-difluoroethyl)-4-methylspiro[isoindoline-1,4′-piperidin]-3-one], with 50 to 1000 nM. Then `Cc1c(N)ncnc1Nc1cc(F)c2c(c1)C1(CCCCC1)NC2=O` [Cpd. No. 89, 6′-((6-amino-5-methylpyrimidin-4-yl)amino)-4′-fluorospiro[cyclohexane-1,1′-isoindolin]-3′-one], with 50 to 1000 nM; and `Cc1cc(Nc2ncnc(N)c2C(F)(F)F)cc2c1C(=O)NC21CCCCC1` [Cpd. No. 80, 6′-((6-amino-5-(trifluoromethyl)pyrimidin-4-yl)amino)-4′-methylspiro[cyclohexane-1,1′-isoindolin]-3′-one], with 50 to 1000 nM; and `CCOc1c(N)ncnc1Nc1cc(C)c2c(c1)C1(CCCCC1)NC2=O` [Cpd. No. 76, 6′-((6-amino-5-ethoxypyrimidin-4-yl)amino)-4′-methylspiro[cyclohexane-1,1′-isoindolin]-3′-one], with 50 to 1000 nM. As for `CSc1c(N)ncnc1Nc1cc(C)c2c(c1)C1(CCCCC1)NC2=O` [Cpd. No. 85, 6′-((6-amino-5-(methylthio)pyrimidin-4-yl)amino)-4′-methylspiro[cyclohexane-1,1′-isoindolin]-3′-one trifluoroacetic acid salt], the IC50 is 50 to 1000 nM.

Take `Cc1cc(Nc2ncncc2C#N)cc2c1C(=O)NC21CCCCC1` [Cpd. No. 63, 4-((4′-methyl-3′-oxospiro[cyclohexane-1,1′-isoindolin]-6′-yl)amino)pyrimidine-5-carbonitrile]: the half-maximal inhibitory concentration (IC50) was in the range of 50 to 1000 nM. Under `Cc1cc(Nc2ncnc(N)c2C)cc2c1C(=O)NC21CCN(C)CC1` [Cpd. No. 62, 6-((6-amino-5-methylpyrimidin-4-yl)amino)-1′,4-dimethylspiro[isoindoline-1,4′-piperidin]-3-one] stands 1000 to 100000 nM; under `Cc1cc(Nc2ncnc(N)c2S(C)(=O)=O)cc2c1C(=O)NC21CCCCC1` [Cpd. No. 86, 6′-((6-amino-5-(methylsulfonyl)pyrimidin-4-yl)amino)-4′-methylspiro[cyclohexane-1,1′-isoindolin]-3′-one], 50 to 1000 nM; under `Cc1cc(Nc2ncnc(N)c2OCCCN)cc2c1C(=O)NC21CCCCC1` [Cpd. No. 87, 6′-((6-amino-5-(3-aminopropoxy)pyrimidin-4-yl)amino)-4′-methylspiro[cyclohexane-1,1′-isoindolin]-3′-one hydrochloride salt], 50 to 1000 nM. Under `Cc1cc(Nc2ncnc(N)c2OC(F)(F)F)cc2c1C(=O)NC21CCCCC1` [Cpd. No. 83, 6′-((6-amino-5-(trifluoromethoxy)pyrimidin-4-yl)amino)-4′-methylspiro[cyclohexane-1,1′-isoindolin]-3′-one] stands < 50 nM; under `Cc1cc(Nc2ncncc2C#N)cc2c1C(=O)NC21CCN(CC(F)F)CC1` [Cpd. No. 67, 4-((1′-(2,2-difluoroethyl)-4-methyl-3-oxospiro[isoindoline-1,4′-piperidin]-6-yl)amino)pyrimidine-5-carbonitrile], 1000 to 100000 nM.

In the case of `COc1cc(Nc2ncnc(N)c2C)cc2c1C(=O)NC21CCCCC1` [Cpd. No. 78, 6′-((6-amino-5-methylpyrimidin-4-yl)amino)-4′-methoxyspiro[cyclohexane-1,1′-isoindolin]-3′-one], the IC50 is 1000 to 100000 nM.

As to `Cc1cc(Nc2ncnc(N)c2C)c(Cl)c2c1C(=O)NC21CCCCC1` [Cpd. No. 96, 6′-((6-amino-5-methylpyrimidin-4-yl)amino)-7′-chloro-4′-methylspiro[cyclohexane-1,1′-isoindolin]-3′-one], the IC50 fell in the range of 1000 to 100000 nM.
